Assay results as given in US9738669B2, “Pentaaza macrocyclic ring complexes possessing oral bioavailability” (Galera Labs, LLC, priority 2015, dated 2017).

Test: Intraduodenal (id) bioavailability screen in minipigs, plasma level of parent Mn complex by HPLC/MS/MS
Type: in vivo, Gottingen minipig
Conditions: for Mini-Pig BioA: id 10 mg/kg, vs 1 mg/kg iv parent chloro complex, AUC0→24 h
Procedure: Compounds were screened for oral bioavailability by injecting the formulated prodrugs directly into the duodenum (intraduodenal or id administration) of the minipig test subjects, thus bypassing the acidic environment of the stomach and thereby eliminating potentially misleading oral bioavailability results that could arise from alteration of the test article drug in the acid environment of the stomach.
The studies were conducted at Xenometrics LLC (Stillwell, Kans.) and the id bioavailability was determined using various axial ligand derivative complexes of GC4419, GC4444, GC4403 and GC4401.
Male Gottingen minipigs (4-5 mo old, 9-12 kg weight) were purchased from Marshall BioResources and housed at Xenometrics. […] The distal end was exteriorized with a reusable accessible hub (see surgical details below). During a recovery period of at least 2 weeks the minipigs were handled daily to acclimate them to the test procedures, i.e., id dosing and blood collections. For each experiment, each minipig received a test article drug dissolved or suspended in an excipient vehicle. […] All dosing experiments were conducted in fasted animals. Food was withdrawn from the minipigs 16 hours before dosing. The minipigs had ad libitum access to water. Dosed minipigs were allowed access to food 6 hour after dosing. The test article was administered at a dose of 10 mg/kg parent drug in 0.1 mL/kg vehicle (e.g., 1.5 mL in 15 kg minipig) as a bolus injection (˜1 minute) via the id cannula. The actual amount of total test article drug administered varied with the formula weight of the prodrug. An equal volume of excipient vehicle was used to flush the cannula after the test article was administered. Approximately 6 hours later, corn oil was used to flush the cannula. After approximately 24 hours post-dose, the catheter was flushed with sterile saline solution and capped. At the following time-points 0.25, 0.5, 1, 2, 4, 8, 24 and 48 hour post-injection, 2 mL blood samples were collected by cranial vena cava puncture (4 mL Sodium heparin Vacutainer, 20 g 1.5″ needle) after the skin surface was wiped with ethanol. The minipig was placed in a sling in a recumbent position without anesthesia for the collection of blood samples. The minipigs were never used more than once per 7 days for experimentation. The blood samples were kept on ice until processed for plasma. Blood samples were centrifuged at 1200×g for ten minutes at 4° C. and plasma samples were transferred to 96 well plate tubes, capped and stored at −20° C. until shipment on dry ice to the analytical laboratory used for measuring the concentration of drug in the plasma. The concentration of the parent manganese pentaaza macrocylic ring complex (independent of the composition of the axial ligands) was measured in plasma using a validated HPLC/MS/MS method that is linear between 50 ng/mL and 20,000 ng/mL.
The oils used for preparing the dosing solutions were used as supplied from commercial sources. The Capmul MCM (NF) is a mixture of mono/diglycerides of caprylic/capric acids and was supplied by ABITEC Corporation, Janesville, Wis. The Miglyol 812 N is a mixture of caprylic/capric acid triglycerides and was supplied by Cremer Oleo Division, Eatontown, N.J. Labrafil M 2125 CS (NF) is chemically defined to be linoleoyl polyoxyl-6 glycerides NF and was supplied by Gattefosse, SAINT-PRIEST Cedex, France. Peceol is chemically defined to be the monoglyceride, glyceryl monooleate NF, and was supplied by Gattefosse, SAINT-PRIEST Cedex, France. Maisine 35-1 is chemically defined to be the monoglyceride glyceryl monolinoleate (NF) and was supplied by Gattefosse, SAINT-PRIEST Cedex, France. Labrasol (NF) is chemically defined to be caprylocaproyl polyoxyl-8 glycerides NF and was supplied by Gattefosse, SAINT-PRIEST Cedex, France. Labrafil M 1944 CS is chemically defined to be oleoyl polyoxyl-6 glycerides (NF), and is available from Gattefosse, SAINT-PRIEST Cedex, France. […]

[1] = base oil Capmul MCM, 10% by weight
[2] = base oil Maisine 35-1, 10% by weight
[3] = base oil Labrafil M2125 CS, 10% by weight

Row | Substance | Mini-Pig BioA [1] | Mini-Pig BioA [2] | Mini-Pig BioA (base oil Peceol, 10% by weight) | Mini-Pig BioA [3] | other results
1 | Manganese(II)bis-L-phenylalaninato[(4aS,13aS,17aS,21aS)-1,2,3,4,4a,5,6,12,13,13a,14,15,16,17,17a,18,19,20,21,21a-Eicosahydro-11,7-nitrilo-7H-dibenzo[b,h][1,4,7,10]tetraazacyclo-heptadecine-κN5,κN13,κN18,κN21,κN22]- [GC4704] | 10% |  |  |  | 
2 | Manganese(II)bis-L-valinato[(4aS,13aS,17aS,21aS)-1,2,3,4,4a,5,6,12,13,13a,14,15,16,17,17a,18,19,20,21,21a-Eicosahydro-11,7-nitrilo-7H-dibenzo[b,h][1,4,7,10]tetraazacyclo-heptadecine-κN5,κN13,κN18,κN21,κN22]- [GC4746] | 13% |  |  |  | 
3 | Manganese(II)bis-acetato[(4aS,13aS,17aS,21aS)-1,2,3,4,4a,5,6,12,13,13a,14,15,16,17,17a,18,19,20,21,21a-Eicosahydro-11,7-nitrilo-7H-dibenzo[b,h][1,4,7,10]tetraazacycloheptadecine-κN5,κN13,κN18,κN21,κN22]- [GC4701] | 15% | 8% | 11% | 16% | 
4 | Manganese(II)bis-phenylacetato[(4aS,13aS,17aS,21aS)-1,2,3,4,4a,5,6,12,13,13a,14,15,16,17,17a,18,19,20,21,21a-Eicosahydro-11,7-nitrilo-7H-dibenzo[b,h][1,4,7,10]tetraazacyclo-heptadecine-κN5,κN13,κN18,κN21,κN22]- [GC4718] | 32% | 28% |  |  | 
5 | Manganese(II)bis-phenylglyoxaloto[(4aS,13aS,17aS,21aS)-1,2,3,4,4a,5,6,12,13,13a,14,15,16,17,17a,18,19,20,21,21a-Eicosahydro-11,7-nitrilo-7H-dibenzo[b,h][1,4,7,10]tetraazacyclohepta-decine-κN5,κN13,κN18,κN21,κN22]- [GC4719] | 25% | 31% | 28% |  | 
6 | Manganese(II)bis-propionato[6R-Methyl(4aR,13aR,17aR,21aR)-1,2,3,4,4a,5,6,12,13,13a,14,15,16,17,17a,18,19,20,21,21a-Eicosahydro-11,7-nitrilo-7H-dibenzo[b,h][1,4,7,10]tetraazacycloheptadecine-κN5,κN13,κN18,κN21,κN22]- [GC4747] |  |  |  | 20% | 
7 | Manganese(II)bis-propionato[(4aR,13aR,17aR,21aR)-1,2,3,4,4a,5,6,12,13,13a,14,15,16,17,17a,18,19,20,21,21a-Eicosahydro-11,7-nitrilo-7H-dibenzo[b,h][1,4,7,10]tetraazacycloheptadecine-κN5,κN13,κN18,κN21,κN22]- [GC4748] |  |  |  | 22% | 
8 | Manganese(II)bis-propionato[(4aS,13aS,17aS,21aS)-1,2,3,4,4a,5,6,12,13,13a,14,15,16,17,17a,18,19,20,21,21a-Eicosahydro-11,7-nitrilo-7H-dibenzo[b,h][1,4,7,10]tetraaza-cycloheptadecine-κN5,κN13,κN18,κN21,κN22]- [GC4711] | 27% | 29% | 29% | 44% | Mini-Pig BioA (base oil Labrafil M1944 CS, 10% by weight): 23%

Continued, in another order:

Row | Mini-Pig BioA [1] | Mini-Pig BioA [2] | Mini-Pig BioA (base oil Peceol, 10% by weight) | Mini-Pig BioA [3] | Substance | other results
9 | 24% | 18% | 29% |  | Manganese(II)bis-Benzoato[(4aS,13aS,17aS,21aS)-1,2,3,4,4a,5,6,12,13,13a,14,15,16,17,17a,18,19,20,21,21a-Eicosahydro-11,7-nitrilo-7H-dibenzo[b,h][1,4,7,10]tetraazacycloheptadecine-κN5,κN13,κN18,κN21,κN22]- [GC4712] | 
10 | 36% |  |  |  | Manganese(II)bis-L-Lactato[(4aS,13aS,17aS,21aS)-1,2,3,4,4a,5,6,12,13,13a,14,15,16,17,17a,18,19,20,21,21a-Eicosahydro-11,7-nitrilo-7H-dibenzo[b,h][1,4,7,10]tetraazacycloheptadecine-κN5,κN13,κN18,κN21,κN22]- [GC4714] | 
11 | 43% |  | 29% | 25% | Manganese(II)bis-L-phenylglycinato[(4aS,13aS,17aS,21aS)-1,2,3,4,4a,5,6,12,13,13a, 14,15,16,17,17a,18,19,20,21,21a-Eicosahydro-11,7-nitrilo-7H-dibenzo[b,h][1,4,7,10]tetraazacyclo-heptadecine-κN5,κN13,κN18,κN21,κN22]- [GC4702] | Mini-Pig BioA (base oil Miglyol 812N, 10% by weight): 42%; oral bioavailability / absorption, comparison in words (minipig id dosing, oil formulations, comparison between axial ligands): much better absorbed
12 | 9% |  |  |  | Manganese(II)bis-cyclohexanebutyrato[(4aS,13aS,17aS,21aS)-1,2,3,4,4a,5,6,12,13,13a, 14,15,16,17,17a,18,19,20,21,21a-Eicosahydro-11,7-nitrilo-7H-dibenzo[b,h][1,4,7,10]tetraazacyclo-heptadecine-κN5,κN13,κN18,κN21,κN22]- [GC4707] | 
13 | 12% |  |  |  | Manganese(II)bis-dodecanoato[(4aS,13aS,17aS,21aS)-1,2,3,4,4a,5,6,12,13,13a,14,15,16,17,17a,18,19,20,21,21a-Eicosahydro-11,7-nitrilo-7H-dibenzo[b,h][1,4,7,10]tetraazacycloheptadecine-κN5,κN13,κN18,κN21,κN22]- [GC4708] | 
14 |  |  | 18% | 21% | Manganese(II)bis-n-Butyrato[(4aS,13aS,17aS,21aS)-1,2,3,4,4a,5,6,12,13,13a,14,15,16,17,17a,18,19,20,21,21a-Eicosahydro-11,7-nitrilo-7H-dibenzo[b,h][1,4,7,10]tetraazacycloheptadecine-κN5,κN13,κN18,κN21,κN22]- [GC4713] | 
15 | 13% | 8% |  | 21% | Manganese(II)bis-octanoato[(4aS,13aS,17aS,21aS)-1,2,3,4,4a,5,6,12,13,13a,14,15,16,17,17a,18,19,20,21,21a-Eicosahydro-11,7-nitrilo-7H-dibenzo[b,h][1,4,7,10]tetraazacycloheptadecine-κN5,κN13,κN18,κN21,κN22]- [GC4710] | 
16 | 17% |  |  | 22% | Manganese(II)bis-pivaloato[(4aS,13aS,17aS,21aS)-1,2,3,4,4a,5,6,12,13,13a,14,15,16,17,17a,18,19,20,21,21a-Eicosahydro-11,7-nitrilo-7H-dibenzo[b,h][1,4,7,10]tetraazacycloheptadecine-κN5,κN13,κN18,κN21,κN22]- [GC4709] | 
17 | 28% |  |  |  | Manganese(II)bis-rac-Mandelato[(4aS,13aS,17aS,21aS)-1,2,3,4,4a,5,6,12,13,13a,14,15,16,17,17a,18,19,20,21,21a-Eicosahydro-11,7-nitrilo-7H-dibenzo[b,h][1,4,7,10]tetraazacycloheptadecine-κN5,κN13,κN18,κN21,κN22]- [GC4706] | 
18 | 23% |  | 24% |  | Manganese(II)bis-racemic-2-phenylpropionato[(4aS,13aS,17aS,21aS)-1,2,3,4,4a,5,6,12,13,13a,14,15,16,17,17a,18,19,20,21,21a-Eicosahydro-11,7-nitrilo-7H-dibenzo[b,h][1,4,7,10]tetraazacycloheptadecine-κN5,κN13,κN18,κN21,κN22]- [GC4705] | 
